These results are taken from ChEMBL document CHEMBL1128729, “Alpha- and beta-adrenoceptors: from the gene to the clinic. 2. Structure-activity relationships and therapeutic applications” (J Med Chem, 1995).

SMILES strings stand for the structures.

Test [1] deals with T1, Alpha-1B adrenergic receptor (Homo sapiens, UniProt P35368).
T1 sequence (P35368 whole entry): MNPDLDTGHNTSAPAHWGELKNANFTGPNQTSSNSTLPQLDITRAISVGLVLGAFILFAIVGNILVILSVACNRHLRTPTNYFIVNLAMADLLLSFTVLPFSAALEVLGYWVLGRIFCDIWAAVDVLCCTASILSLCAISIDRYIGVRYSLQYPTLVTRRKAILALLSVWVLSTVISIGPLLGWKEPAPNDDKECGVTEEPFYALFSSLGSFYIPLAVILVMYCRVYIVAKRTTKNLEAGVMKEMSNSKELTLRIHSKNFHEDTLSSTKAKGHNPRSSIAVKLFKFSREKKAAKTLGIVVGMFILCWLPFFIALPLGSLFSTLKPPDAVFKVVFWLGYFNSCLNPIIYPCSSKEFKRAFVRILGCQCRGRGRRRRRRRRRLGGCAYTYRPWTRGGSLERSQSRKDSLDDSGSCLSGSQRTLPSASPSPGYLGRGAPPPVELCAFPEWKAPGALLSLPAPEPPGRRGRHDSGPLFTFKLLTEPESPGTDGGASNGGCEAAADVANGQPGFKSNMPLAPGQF
In words: biochemical.
Description: Inhibition of [3H]prazosin binding to human Alpha-1B adrenergic receptor expressed in CHO cells

The species named for the next test is Oryctolagus cuniculus. In words: Ability to block norepinephrine-induced contraction in rabbit aorta. In kind it is functional.
Test [2] deals with T2, Alpha-1D adrenergic receptor (Homo sapiens, UniProt P25100).
T2 sequence (P25100 whole entry): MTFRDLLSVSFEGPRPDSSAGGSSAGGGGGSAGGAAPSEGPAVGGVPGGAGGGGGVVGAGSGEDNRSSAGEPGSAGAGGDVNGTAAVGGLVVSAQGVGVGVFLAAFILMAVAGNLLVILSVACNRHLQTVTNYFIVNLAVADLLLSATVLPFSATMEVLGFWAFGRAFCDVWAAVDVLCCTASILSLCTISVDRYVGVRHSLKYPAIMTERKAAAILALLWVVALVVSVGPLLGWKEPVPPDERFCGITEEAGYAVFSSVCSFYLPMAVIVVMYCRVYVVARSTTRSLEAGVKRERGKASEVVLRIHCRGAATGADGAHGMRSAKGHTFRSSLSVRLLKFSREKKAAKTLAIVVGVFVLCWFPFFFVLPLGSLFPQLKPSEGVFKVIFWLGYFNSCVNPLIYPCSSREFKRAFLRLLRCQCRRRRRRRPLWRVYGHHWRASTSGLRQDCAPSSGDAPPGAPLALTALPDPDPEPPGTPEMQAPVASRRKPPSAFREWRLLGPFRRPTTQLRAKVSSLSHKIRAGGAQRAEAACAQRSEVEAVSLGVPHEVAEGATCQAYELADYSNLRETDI
In words: biochemical.
Description: Inhibition of [3H]prazosin binding to human Alpha-1D adrenergic receptor expressed in CHO cells

The species entered for another test is Cavia porcellus. In words: Ability to block B-HT 920-induced inhibition of inotropic response to field stimulation in superfused guinea pig atrium. The following applies: Cardiac atrium. Type of test: functional.
The next test is filed under the species Canis familiaris. In words: Ability to block B-HT 920-induced contraction in canine saphenous vein. Type of test: functional. The following applies: Canis lupus familiaris.
For test [3], the target named is T3, Alpha-1A adrenergic receptor (Homo sapiens, UniProt P35348).
T3 sequence (P35348 whole entry): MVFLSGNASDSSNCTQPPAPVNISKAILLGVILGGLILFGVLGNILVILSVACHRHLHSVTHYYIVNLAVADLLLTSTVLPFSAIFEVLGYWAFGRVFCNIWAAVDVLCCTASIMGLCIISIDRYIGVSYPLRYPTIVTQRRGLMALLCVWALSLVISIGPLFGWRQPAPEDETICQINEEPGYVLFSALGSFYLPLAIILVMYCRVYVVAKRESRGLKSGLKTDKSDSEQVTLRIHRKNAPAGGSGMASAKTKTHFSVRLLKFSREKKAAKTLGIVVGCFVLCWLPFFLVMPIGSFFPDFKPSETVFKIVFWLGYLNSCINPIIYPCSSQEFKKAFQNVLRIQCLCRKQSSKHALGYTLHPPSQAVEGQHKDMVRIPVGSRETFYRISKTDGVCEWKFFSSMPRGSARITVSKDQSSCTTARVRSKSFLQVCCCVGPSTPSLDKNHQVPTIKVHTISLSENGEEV
In words: biochemical.
Description: Inhibition of [3H]prazosin binding to human Alpha-1A adrenergic receptor expressed in CHO cells

In test [4] the target is T4, Alpha-2B adrenergic receptor (Homo sapiens, UniProt P18089).
T4 sequence (P18089 whole entry): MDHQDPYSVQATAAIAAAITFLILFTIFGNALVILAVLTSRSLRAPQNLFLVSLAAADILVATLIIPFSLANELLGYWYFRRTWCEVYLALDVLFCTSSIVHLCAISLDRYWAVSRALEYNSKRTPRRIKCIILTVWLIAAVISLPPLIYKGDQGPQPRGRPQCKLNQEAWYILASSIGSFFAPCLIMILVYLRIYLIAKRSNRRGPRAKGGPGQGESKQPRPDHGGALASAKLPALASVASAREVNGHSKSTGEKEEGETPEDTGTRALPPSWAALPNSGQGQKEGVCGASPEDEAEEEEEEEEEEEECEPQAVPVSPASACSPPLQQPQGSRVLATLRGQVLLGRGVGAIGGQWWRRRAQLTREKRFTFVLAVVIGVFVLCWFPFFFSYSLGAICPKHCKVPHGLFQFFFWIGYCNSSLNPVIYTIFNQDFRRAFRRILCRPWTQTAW
In words: biochemical. Type of test: cell-based, CHO.

Test [5] deals with T5, Alpha-2C adrenergic receptor (Homo sapiens, UniProt P18825).
T5 sequence (P18825 whole entry): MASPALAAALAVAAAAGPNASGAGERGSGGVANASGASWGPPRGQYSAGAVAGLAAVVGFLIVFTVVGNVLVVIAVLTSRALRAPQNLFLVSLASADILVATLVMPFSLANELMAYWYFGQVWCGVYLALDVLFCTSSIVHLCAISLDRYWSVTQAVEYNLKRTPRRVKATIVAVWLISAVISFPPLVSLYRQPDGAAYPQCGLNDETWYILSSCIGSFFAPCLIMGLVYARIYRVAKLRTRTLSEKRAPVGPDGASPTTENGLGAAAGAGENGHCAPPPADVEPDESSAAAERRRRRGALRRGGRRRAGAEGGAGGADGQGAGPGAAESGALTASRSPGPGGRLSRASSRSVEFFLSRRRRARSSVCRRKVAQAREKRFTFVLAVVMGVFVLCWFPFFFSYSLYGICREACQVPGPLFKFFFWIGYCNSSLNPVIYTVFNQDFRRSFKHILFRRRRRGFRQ
In words: biochemical.

The target of test [6] is T6, Alpha-2A adrenergic receptor (Homo sapiens, UniProt P08913).
T6 sequence (P08913 whole entry): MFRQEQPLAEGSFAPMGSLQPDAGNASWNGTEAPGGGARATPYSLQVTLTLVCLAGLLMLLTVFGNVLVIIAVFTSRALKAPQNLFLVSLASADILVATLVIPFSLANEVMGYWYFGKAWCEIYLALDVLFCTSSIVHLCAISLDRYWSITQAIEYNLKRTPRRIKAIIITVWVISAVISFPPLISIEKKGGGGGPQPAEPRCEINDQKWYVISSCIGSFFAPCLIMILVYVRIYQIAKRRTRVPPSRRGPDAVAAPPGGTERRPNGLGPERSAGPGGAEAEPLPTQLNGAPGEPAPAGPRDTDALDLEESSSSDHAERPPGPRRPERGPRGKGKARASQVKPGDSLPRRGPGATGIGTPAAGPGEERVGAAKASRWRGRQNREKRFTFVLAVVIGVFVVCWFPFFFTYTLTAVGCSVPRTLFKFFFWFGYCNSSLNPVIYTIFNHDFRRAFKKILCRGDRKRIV
In words: biochemical.

The target in test [7] is Voltage-dependent L-type calcium channel subunit alpha-1C (Rattus norvegicus, UniProt P22002). In words: biochemical.
Sequence of Voltage-dependent L-type calcium channel subunit alpha-1C (P22002 whole entry): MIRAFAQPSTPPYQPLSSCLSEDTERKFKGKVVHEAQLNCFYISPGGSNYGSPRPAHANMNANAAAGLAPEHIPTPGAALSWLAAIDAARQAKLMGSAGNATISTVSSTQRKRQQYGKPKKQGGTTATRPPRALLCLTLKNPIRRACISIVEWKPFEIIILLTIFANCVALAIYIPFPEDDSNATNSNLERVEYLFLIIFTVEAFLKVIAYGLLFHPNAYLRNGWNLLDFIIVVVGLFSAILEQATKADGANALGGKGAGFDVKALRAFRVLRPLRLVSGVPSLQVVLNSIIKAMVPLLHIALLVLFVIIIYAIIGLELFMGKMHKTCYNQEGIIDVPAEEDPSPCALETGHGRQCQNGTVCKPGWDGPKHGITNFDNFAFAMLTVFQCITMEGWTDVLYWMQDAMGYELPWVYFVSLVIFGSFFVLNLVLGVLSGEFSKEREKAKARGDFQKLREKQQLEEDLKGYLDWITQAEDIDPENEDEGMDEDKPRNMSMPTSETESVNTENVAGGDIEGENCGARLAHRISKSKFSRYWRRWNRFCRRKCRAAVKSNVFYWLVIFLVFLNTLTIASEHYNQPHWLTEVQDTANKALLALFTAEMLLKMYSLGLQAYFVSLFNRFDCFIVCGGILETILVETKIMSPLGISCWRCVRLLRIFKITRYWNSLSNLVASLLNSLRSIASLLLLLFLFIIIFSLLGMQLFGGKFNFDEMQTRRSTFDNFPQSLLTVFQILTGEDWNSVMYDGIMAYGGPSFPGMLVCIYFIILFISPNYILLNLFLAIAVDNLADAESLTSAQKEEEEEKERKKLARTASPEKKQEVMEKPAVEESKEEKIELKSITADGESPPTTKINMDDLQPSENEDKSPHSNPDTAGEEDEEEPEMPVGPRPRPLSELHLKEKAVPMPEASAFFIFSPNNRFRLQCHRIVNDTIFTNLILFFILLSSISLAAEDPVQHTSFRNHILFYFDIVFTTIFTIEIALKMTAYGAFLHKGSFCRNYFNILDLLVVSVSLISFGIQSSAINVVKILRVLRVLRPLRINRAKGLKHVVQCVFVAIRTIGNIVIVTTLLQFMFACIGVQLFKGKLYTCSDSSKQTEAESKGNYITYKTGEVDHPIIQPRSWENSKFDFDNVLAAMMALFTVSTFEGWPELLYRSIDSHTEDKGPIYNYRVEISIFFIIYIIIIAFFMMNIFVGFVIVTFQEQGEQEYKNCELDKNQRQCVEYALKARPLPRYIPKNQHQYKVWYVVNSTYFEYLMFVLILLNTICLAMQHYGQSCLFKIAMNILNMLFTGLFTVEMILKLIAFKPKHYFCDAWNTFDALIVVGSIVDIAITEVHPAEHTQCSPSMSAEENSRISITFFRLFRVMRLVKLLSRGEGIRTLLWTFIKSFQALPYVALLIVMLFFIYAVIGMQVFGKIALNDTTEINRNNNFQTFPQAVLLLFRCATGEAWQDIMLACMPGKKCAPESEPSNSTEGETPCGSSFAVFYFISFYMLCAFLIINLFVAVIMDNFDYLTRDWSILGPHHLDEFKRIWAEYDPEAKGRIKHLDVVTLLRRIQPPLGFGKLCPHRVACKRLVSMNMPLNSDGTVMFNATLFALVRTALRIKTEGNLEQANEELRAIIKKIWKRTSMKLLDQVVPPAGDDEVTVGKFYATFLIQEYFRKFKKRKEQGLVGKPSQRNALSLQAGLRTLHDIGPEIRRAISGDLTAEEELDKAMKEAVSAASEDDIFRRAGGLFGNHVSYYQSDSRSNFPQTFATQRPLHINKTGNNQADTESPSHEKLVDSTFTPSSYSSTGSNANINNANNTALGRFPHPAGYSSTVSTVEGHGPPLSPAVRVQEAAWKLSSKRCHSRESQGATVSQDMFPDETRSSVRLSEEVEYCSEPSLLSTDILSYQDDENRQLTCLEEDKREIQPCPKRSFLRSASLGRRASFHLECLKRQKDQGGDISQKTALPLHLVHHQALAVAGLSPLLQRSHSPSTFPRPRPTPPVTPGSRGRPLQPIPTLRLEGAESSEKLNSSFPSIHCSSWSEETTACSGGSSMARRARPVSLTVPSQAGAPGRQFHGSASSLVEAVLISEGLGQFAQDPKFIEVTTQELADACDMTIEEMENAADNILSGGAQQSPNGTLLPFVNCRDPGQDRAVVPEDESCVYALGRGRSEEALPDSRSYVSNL
Description: Inhibition of [3H]nitrendipine binding to membrane homogenates of rat cardiac muscle.
For test [8], the target named is Beta-2 adrenergic receptor (Cavia porcellus, UniProt Q8K4Z4). In words: Effective dose for relaxation of guinea pig trachea.
Sequence of Beta-2 adrenergic receptor (Q8K4Z4 whole entry): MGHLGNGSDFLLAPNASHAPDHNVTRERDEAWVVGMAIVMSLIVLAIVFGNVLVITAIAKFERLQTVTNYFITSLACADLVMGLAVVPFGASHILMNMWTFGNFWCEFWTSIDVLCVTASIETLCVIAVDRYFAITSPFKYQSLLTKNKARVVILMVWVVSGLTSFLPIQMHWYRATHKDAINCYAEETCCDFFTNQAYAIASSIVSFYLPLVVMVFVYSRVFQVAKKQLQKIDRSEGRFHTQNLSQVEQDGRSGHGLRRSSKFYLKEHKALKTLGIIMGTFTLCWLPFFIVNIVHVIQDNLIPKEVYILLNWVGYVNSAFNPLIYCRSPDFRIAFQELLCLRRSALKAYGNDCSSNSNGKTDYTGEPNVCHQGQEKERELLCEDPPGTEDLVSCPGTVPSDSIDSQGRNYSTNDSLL
In test [9] the target is Beta-1 adrenergic receptor (Cavia porcellus, UniProt B0FL73). In words: Effective dose required to stimulate contractions in isolated guinea pig atrium. In kind it is functional, tissue-based, Cardiac atrium.
Sequence of Beta-1 adrenergic receptor (B0FL73 whole entry): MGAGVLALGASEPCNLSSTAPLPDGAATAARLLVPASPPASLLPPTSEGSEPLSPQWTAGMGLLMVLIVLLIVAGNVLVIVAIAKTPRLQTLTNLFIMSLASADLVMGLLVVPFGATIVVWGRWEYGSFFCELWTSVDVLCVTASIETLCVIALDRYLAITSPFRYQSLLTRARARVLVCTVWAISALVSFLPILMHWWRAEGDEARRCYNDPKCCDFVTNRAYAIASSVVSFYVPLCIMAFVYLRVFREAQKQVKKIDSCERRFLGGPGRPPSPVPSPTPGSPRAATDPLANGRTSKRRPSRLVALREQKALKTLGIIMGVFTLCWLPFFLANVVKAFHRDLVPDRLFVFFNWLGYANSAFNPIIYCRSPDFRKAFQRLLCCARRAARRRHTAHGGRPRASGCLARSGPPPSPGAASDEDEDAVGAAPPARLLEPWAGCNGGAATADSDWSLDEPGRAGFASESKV
The next test has as its target T7, Monoamine oxidase (Homo sapiens, UniProt P21397+P27338).
T7 sequence (P21397 whole entry): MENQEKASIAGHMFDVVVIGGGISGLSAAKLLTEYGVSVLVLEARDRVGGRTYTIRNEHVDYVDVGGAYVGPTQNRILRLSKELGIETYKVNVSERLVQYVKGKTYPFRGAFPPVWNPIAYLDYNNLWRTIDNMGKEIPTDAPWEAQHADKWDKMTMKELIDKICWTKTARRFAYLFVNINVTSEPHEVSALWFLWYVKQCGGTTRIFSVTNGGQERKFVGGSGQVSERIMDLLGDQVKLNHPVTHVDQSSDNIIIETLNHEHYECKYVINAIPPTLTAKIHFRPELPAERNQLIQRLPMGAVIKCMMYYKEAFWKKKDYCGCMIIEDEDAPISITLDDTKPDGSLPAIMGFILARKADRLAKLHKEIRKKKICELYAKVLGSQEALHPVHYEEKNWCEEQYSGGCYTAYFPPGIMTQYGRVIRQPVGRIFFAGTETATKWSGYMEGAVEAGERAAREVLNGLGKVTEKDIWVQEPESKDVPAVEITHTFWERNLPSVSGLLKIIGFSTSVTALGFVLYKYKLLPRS
T7 sequence (P27338 whole entry): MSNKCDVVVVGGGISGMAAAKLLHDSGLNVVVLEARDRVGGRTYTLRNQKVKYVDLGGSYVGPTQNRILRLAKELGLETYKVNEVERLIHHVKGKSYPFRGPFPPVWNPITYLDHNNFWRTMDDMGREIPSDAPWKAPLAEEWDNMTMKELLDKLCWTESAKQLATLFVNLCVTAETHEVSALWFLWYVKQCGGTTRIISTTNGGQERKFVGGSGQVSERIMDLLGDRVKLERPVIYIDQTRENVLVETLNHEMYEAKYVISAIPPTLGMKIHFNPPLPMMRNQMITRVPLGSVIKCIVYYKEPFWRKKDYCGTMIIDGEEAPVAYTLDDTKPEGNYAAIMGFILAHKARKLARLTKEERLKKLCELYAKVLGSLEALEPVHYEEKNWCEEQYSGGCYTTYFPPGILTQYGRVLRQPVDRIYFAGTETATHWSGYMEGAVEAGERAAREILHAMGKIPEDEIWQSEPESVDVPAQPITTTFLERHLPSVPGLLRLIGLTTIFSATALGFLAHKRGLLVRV
In words: Binding affinity for imidazoline receptor I-2. Type of test: protein assay.

Consider `CC(C)=CCOc1ccc(Cl)c2c1CCN(C)CC2`, for which the Ki (as a rule, the equilibrium dissociation constant of an inhibitor or competing ligand from its target) in test [1] was 0.087 µM; in test [2], 0.033 µM; in test [3], 0.033 µM. The Kb in the test listed under Oryctolagus cuniculus is 0.15 µM; in the test filed under Cavia porcellus, above 3 µM; in the test filed under Canis familiaris, 0.076 µM.

In the case of `CN1CCc2c(Cl)ccc3oc(Br)c(c23)C1`, the inhibition constant Ki in test [1] came to 0.783 µM; in test [4], 0.014 µM; in test [2], 0.072 µM; in test [5], 0.028 µM; in test [3] it was 3.3 µM; in [6], 0.054 µM. In addition, the figures for the Kb in the test listed under Oryctolagus cuniculus, in the test listed under Cavia porcellus and in the test listed under Canis familiaris were above 1 µM, above 3 µM and 0.04 µM, respectively.

Regarding `CN1CCc2cccc(Cl)c2CC1`, the Ki in test [1] stood at 0.485 µM; in test [4], 0.016 µM; in [2], 0.126 µM; in [3] it was 0.449 µM; in test [6], 0.0094 µM. Besides, the Kb turned out to be 0.6 µM in the test filed under Oryctolagus cuniculus, 0.017 µM in the test listed under Cavia porcellus and 0.042 µM in the test listed under Canis familiaris.

Take `CCc1sc2ccc(Cl)c3c2c1CN(C)CC3`: the inhibition constant (Ki) in test [1] is 0.015 µM; in [4] it was 0.015 µM; in [2] it was 0.0012 µM; in test [5], 0.035 µM; in test [3], 0.058 µM; in test [6] it was 0.031 µM. Besides, the Kb in the test filed under Oryctolagus cuniculus was 0.056 µM; in the test filed under Cavia porcellus, above 3 µM; in the test filed under Canis familiaris it was 0.084 µM.

For the compound `C=Cc1sc2ccc(Cl)c3c2c1CN(C)CC3`, the Ki came out at 0.023 µM in [1]; 0.0034 µM in [4]; 0.0016 µM in [2]; 0.021 µM in [5]; 0.036 µM in [3]; 0.024 µM in test [6]. In addition, the Kb in the test filed under Oryctolagus cuniculus was 0.025 µM; in the test listed under Cavia porcellus, above 3 µM; in the test filed under Canis familiaris it was 0.029 µM.

For the compound `CC1=C(C(N)=O)C(c2ccc([N+](=O)[O-])cc2)C(C(=O)NCCCN2CCC(c3ccccc3)(c3ccccc3)CC2)=C(C)N1` (stereo unspecified), the Ki in test [7] is above 0.01 µM.

With `CNC(=O)C1=C(C)NC(C)=C(C(=O)NCCCN2CCC(c3ccccc3)(c3ccccc3)CC2)C1c1ccc([N+](=O)[O-])cc1` (stereo unspecified), the inhibition constant (Ki) in test [7] is above 5 µM; in [3], 0.0031 µM.

For `COC(=O)C1=C(C)NC(C)=C(C(=O)NCCCN2CCC(c3ccccc3)(c3ccccc3)CC2)C1c1cccc([N+](=O)[O-])c1` (stereo unspecified), the Ki worked out at 0.03 µM in test [7] and 0.0004 µM in test [3].

As for `CNC[C@H](O)c1ccc(O)c(O)c1` (stereo in doubt; (+)) [EPINEPHRINE], the EC50 in test [8] and in [9] was 0.436 µM throughout.

Take `CNC[C@H](O)c1ccc(O)c(O)c1` (stereo in doubt; (-)) [EPINEPHRINE]: the concentration for a half-maximal effect (EC50) in [8] and in test [9] was 0.015 µM in each case.

On to `c1ccc2c(c1)OCC(C1=NCCN1)O2` (stereo unspecified) [IDAZOXAN], for which the inhibition constant (Ki) at Monoamine oxidase is below 0.01 µM.
